PMC6199744, “Development of Chemical Proteomics for the Folateome and Analysis of the Kinetoplastid Folateome” (ACS Infectious Diseases, 2018)
Read-outs that look alike come from different tables or passages of the source.

Columns and labels:
Type in all cases: binding
[1] = target: T1, HeLa cell extract proteins (Homo sapiens, UniProt P25789)
T1 construct: endogenous in cells; host or cells: HeLa cell extract
T1 sequence (P25789 1-261): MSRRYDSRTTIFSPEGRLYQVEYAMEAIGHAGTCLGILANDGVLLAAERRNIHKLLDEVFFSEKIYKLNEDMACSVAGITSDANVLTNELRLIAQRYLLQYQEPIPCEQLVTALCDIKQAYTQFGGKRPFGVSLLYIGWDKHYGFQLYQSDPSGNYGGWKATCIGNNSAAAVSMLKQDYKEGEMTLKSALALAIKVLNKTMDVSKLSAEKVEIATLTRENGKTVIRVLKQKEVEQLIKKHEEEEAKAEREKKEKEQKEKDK

[2] = target: T2, HeLa cell extract proteins (Homo sapiens, UniProt P33993)
T2 construct: endogenous in cells; host or cells: HeLa cell extract
T2 sequence (P33993 whole entry): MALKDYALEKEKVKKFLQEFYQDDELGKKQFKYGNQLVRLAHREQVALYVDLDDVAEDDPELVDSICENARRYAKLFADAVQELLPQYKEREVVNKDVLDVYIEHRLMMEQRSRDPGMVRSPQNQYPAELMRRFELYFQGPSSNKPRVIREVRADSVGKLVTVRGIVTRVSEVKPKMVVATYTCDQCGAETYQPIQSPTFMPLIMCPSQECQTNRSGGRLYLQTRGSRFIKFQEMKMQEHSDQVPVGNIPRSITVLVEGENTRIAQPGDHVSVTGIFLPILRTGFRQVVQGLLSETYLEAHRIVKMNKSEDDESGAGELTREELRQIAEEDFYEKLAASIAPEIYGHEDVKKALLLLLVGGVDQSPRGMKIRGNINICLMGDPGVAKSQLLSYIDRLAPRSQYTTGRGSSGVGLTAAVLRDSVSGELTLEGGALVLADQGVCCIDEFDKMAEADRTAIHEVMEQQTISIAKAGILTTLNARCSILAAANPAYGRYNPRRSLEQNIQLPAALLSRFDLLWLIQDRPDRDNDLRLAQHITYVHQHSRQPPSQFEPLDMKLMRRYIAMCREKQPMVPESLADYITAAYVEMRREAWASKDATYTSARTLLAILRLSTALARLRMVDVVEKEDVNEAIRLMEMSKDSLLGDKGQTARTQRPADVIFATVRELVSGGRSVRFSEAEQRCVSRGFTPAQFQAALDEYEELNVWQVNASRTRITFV

[3] = target: T3, HeLa cell extract proteins (Homo sapiens, UniProt P34932)
T3 construct: endogenous in cells; host or cells: HeLa cell extract
T3 sequence (P34932 whole entry): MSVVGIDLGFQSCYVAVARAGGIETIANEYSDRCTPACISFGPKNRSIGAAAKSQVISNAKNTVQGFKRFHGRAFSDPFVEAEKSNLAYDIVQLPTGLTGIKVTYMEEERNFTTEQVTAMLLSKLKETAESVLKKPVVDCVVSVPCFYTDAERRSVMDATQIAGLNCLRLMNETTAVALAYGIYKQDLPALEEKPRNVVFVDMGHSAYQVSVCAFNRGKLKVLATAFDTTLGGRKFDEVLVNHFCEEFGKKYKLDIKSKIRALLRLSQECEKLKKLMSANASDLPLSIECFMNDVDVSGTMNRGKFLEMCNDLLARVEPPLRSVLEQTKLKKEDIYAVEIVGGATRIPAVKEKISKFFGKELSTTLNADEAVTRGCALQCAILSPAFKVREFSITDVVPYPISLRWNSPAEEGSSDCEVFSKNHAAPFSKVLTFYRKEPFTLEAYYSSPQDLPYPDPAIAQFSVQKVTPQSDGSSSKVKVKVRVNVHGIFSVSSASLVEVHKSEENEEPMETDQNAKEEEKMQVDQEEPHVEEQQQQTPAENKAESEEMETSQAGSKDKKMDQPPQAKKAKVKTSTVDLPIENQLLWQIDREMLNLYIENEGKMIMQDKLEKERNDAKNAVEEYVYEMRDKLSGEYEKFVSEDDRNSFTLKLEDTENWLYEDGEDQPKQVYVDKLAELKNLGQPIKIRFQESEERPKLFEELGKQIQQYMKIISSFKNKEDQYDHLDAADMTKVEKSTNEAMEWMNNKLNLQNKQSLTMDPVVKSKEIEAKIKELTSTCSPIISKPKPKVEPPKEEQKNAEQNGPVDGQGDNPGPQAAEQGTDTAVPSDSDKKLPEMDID

[4] = target: T4, HeLa cell extract proteins (Homo sapiens, UniProt P35579)
T4 construct: endogenous in cells; host or cells: HeLa cell extract
T4 sequence (P35579 whole entry): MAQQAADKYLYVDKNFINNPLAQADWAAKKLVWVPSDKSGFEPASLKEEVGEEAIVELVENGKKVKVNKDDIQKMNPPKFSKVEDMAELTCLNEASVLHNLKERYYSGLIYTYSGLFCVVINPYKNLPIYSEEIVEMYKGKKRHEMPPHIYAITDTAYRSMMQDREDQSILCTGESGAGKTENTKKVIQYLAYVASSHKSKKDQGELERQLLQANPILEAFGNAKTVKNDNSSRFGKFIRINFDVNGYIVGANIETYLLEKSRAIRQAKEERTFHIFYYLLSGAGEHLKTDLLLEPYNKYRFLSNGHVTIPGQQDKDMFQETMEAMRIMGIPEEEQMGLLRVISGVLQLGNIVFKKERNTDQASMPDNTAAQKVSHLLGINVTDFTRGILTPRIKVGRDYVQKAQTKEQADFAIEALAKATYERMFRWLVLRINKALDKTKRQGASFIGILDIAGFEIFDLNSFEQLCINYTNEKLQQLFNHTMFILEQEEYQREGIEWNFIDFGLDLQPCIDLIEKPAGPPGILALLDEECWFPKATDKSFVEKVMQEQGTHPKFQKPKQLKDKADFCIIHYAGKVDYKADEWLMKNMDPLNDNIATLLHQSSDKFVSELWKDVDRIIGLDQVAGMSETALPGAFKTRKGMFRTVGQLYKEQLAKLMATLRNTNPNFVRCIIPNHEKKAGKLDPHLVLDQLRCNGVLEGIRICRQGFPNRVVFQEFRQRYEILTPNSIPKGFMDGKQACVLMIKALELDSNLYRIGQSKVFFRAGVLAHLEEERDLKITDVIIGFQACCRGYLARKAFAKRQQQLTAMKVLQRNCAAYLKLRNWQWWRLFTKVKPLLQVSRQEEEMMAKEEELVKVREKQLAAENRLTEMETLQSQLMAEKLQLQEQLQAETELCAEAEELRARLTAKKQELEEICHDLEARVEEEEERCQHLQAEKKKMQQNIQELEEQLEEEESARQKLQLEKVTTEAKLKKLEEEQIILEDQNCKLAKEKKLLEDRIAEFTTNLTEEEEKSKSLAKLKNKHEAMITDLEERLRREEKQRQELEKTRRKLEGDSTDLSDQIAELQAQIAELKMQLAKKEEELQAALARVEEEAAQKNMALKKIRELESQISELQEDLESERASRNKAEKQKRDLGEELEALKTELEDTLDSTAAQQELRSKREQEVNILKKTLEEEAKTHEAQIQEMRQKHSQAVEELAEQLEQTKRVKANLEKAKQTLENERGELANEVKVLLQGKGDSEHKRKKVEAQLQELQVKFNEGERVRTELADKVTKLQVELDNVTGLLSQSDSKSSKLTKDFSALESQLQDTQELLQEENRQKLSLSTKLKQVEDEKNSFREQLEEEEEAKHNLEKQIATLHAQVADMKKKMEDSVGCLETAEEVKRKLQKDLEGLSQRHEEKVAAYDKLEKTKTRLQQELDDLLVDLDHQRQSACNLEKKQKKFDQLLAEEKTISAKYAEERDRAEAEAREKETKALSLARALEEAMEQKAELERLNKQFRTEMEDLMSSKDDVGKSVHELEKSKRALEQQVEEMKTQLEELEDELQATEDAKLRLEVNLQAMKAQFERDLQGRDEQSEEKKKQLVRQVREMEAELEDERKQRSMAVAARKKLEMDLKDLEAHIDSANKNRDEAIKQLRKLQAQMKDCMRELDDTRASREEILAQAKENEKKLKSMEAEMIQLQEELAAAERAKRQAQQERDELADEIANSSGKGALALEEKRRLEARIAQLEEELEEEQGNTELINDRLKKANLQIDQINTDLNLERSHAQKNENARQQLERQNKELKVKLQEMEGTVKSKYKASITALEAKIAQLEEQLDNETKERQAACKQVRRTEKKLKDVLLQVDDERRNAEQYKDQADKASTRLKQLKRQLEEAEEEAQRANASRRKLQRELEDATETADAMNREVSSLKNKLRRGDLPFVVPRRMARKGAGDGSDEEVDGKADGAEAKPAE

[5] = target: T5, HeLa cell extract proteins (Homo sapiens, UniProt P35680)
T5 construct: endogenous in cells; host or cells: HeLa cell extract
T5 sequence (P35680 whole entry): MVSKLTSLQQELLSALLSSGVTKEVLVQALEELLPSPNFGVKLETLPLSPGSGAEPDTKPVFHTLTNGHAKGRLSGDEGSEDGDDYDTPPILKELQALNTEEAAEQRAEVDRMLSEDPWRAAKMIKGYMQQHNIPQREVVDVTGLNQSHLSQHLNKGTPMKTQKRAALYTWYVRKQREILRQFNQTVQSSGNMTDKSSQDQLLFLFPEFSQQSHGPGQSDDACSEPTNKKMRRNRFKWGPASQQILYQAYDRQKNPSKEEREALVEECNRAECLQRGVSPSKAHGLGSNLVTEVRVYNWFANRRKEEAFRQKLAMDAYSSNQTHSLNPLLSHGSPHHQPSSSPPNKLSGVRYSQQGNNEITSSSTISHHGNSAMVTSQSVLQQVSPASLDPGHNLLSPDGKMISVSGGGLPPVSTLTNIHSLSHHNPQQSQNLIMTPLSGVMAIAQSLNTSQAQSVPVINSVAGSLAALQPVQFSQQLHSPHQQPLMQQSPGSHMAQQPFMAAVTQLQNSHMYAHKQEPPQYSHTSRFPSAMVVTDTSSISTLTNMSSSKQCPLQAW

[6] = target: T6, HeLa cell extract proteins (Homo sapiens, UniProt P51398)
T6 construct: endogenous in cells; host or cells: HeLa cell extract

[7] = target: T7, HeLa cell extract proteins (Homo sapiens, UniProt Q13162)
T7 construct: endogenous in cells; host or cells: HeLa cell extract
T7 sequence (Q13162 38-271): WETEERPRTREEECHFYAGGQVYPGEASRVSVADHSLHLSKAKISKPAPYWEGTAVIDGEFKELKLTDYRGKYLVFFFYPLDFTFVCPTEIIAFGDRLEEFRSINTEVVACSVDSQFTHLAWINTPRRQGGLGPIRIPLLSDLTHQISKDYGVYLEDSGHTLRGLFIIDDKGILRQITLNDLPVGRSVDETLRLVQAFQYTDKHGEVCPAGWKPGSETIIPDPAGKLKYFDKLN

[8] = target: T8, HeLa cell extract proteins (Homo sapiens, UniProt Q99436)
T8 construct: endogenous in cells; host or cells: HeLa cell extract
T8 sequence (Q99436 44-277): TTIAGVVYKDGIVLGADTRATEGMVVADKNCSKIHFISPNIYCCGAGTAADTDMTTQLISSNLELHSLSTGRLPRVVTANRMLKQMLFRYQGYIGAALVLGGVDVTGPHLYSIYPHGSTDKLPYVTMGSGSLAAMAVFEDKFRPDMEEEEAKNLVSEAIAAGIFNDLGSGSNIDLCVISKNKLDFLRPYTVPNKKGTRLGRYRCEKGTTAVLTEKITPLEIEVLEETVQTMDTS

[9] = target: T9, HeLa cell extract proteins (Homo sapiens, UniProt Q9H479)
T9 construct: endogenous in cells; host or cells: HeLa cell extract
T9 sequence (Q9H479 1-309): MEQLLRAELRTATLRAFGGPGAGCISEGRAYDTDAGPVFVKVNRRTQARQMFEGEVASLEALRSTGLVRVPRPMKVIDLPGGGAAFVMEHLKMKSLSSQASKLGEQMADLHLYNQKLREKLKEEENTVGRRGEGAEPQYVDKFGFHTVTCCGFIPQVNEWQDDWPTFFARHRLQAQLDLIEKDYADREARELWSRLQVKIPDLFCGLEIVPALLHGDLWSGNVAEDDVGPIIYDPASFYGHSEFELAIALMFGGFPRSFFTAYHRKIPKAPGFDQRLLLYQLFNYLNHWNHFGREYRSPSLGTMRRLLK

[10] = target: T10, HeLa cell extract proteins (Homo sapiens, UniProt Q9NTG7)
T10 construct: endogenous in cells; host or cells: HeLa cell extract
T10 sequence (Q9NTG7 1-399): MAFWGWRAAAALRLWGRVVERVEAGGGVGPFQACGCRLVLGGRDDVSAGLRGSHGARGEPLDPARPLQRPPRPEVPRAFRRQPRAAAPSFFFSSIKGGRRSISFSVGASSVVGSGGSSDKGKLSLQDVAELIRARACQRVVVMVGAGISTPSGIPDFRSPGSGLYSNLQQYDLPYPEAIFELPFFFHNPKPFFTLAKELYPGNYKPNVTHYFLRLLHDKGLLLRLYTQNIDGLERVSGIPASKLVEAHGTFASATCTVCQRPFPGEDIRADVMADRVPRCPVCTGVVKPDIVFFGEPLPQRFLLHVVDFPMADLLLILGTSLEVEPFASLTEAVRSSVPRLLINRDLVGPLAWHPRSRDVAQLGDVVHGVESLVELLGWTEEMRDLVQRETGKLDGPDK

[11] = target: T11, HeLa cell extract proteins (Homo sapiens, UniProt Q9Y3F4)
T11 construct: endogenous in cells; host or cells: HeLa cell extract
T11 sequence (Q9Y3F4 1-350): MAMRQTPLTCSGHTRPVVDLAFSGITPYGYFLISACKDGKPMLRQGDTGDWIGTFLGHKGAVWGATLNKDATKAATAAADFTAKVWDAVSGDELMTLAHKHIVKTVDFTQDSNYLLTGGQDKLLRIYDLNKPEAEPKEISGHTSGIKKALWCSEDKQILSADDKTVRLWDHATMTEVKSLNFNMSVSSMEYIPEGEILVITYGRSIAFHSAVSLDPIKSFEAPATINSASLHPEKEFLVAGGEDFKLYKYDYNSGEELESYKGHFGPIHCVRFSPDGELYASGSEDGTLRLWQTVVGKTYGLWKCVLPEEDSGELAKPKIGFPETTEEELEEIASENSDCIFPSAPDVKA

[12] = HeLa, protein PRDX4 (PEROXIREDOXIN-4)
[13] = HeLa, protein PSMB7 ([…] BETA TYPE 7 PRECURSOR)
[14] = HeLa, protein FN3K (FRUCTOSAMINE-3-KINASE)

SMILES | fold changes relative to vehicle control ([1]; HeLa, captured protein PSMA4) | fold changes relative to vehicle control ([2]; protein MCM7, HeLa) | fold changes relative to vehicle control ([3]; HeLa, protein HSPA4) | fold changes relative to vehicle control ([4]; HeLa, protein MYH9 (MYOSIN-9)) | fold changes relative to vehicle control ([5]; HeLa, protein HNF1B) | fold changes relative to vehicle control ([6]; HeLa, captured protein DAP3) | fold changes relative to vehicle control [7, 12] | fold changes relative to vehicle control [8, 13] | fold changes relative to vehicle control [9, 14] | fold changes relative to vehicle control ([10]; HeLa, captured protein SIRT3) | fold changes relative to vehicle control ([11]; protein STRAP, HeLa) | fold changes relative to vehicle control ([1]; protein PSMA4, HeLa) | fold changes relative to vehicle control ([3]; protein HSPA4, HeLa) | fold changes relative to vehicle control ([4]; captured protein MYH9, HeLa) | fold changes relative to vehicle control ([5]; captured protein HNF1B, HeLa) | fold changes relative to vehicle control ([6]; protein DAP3, HeLa) | fold changes relative to vehicle control ([7]; HeLa, protein PRDX4) | fold changes relative to vehicle control ([8]; protein PSMB7, HeLa) | fold changes relative to vehicle control ([9]; protein FN3K, HeLa) | fold changes relative to vehicle control ([10]; protein SIRT3, HeLa) | further results
Nc1nc2c(c(=O)[nH]1)N(C=O)C(CNc1ccc(C(=O)N[C@@H](CCC(=O)O)C(=O)O)cc1)CN2 (some centres unmarked) [LEU, leucovorin] | 1.05 | 0.91 | 0.97 | 0.97 | 0.87 | 0.98 | 1.09 | 1.19 | 0.93 | 1 | 0.85 |  |  |  |  |  |  |  |  |  | 
Nc1nc2[nH]cc(CCc3ccc(C(=O)N[C@@H](CCC(=O)O)C(=O)O)cc3)c2c(=O)[nH]1 [PTX, pemetrexed] |  |  |  |  |  |  |  |  |  |  |  |  |  |  |  |  |  |  |  |  | fold changes relative to vehicle control [1]: 1.02; fold changes relative to vehicle control [2]: 0.96; fold changes relative to vehicle control [3]: 1.09; fold changes relative to vehicle control [4]: 0.99; fold changes relative to vehicle control [5]: 0.82; fold changes relative to vehicle control [6]: 0.9; fold changes relative to vehicle control [7]: 0.96; fold changes relative to vehicle control [8]: 1.6; fold changes relative to vehicle control [9]: 0.88; fold changes relative to vehicle control [10]: 0.95; fold changes relative to vehicle control [11]: 1
CCCCCCOc1ccc(Cc2cnc(N)nc2N)cc1 [compound 1] |  | 1.06 |  |  |  |  |  |  |  |  | 1.07 | 1.1 | 1.19 | 0.91 | 0.64 | 1.27 | 1.08 | 1.17 | 0.92 | 1 | 
CCCCCCOc1cccc(Cc2cnc(N)nc2N)c1 [compound 2] |  | 1.47 |  |  |  |  |  |  |  |  | 1.28 | 1.19 | 2.1 | 1.23 | 1.01 | 1.16 | 0.93 | 1.28 | 1.06 | 1 | 
Nc1nc2cccc(-c3ccccc3)c2n1Cc1ccc(Cl)c(Cl)c1 [compound 3] |  | 1.24 |  |  |  |  |  |  |  |  | 1.11 | 1.06 | 0.92 | 0.85 | 1 | 1 | 0.99 | 0.99 | 1.09 | 1.16 | 
NCCOCCOCC(=O)Nc1nc2ncc(CNc3ccc(C(=O)NC(CCC(=O)O)C(=O)O)cc3)nc2c(=O)[nH]1 (centres unmarked) [compound 6] | 1.06 | 1.16 | 1.26 | 1.44 | 0.81 | 0.84 | 0.92 | 2.16 | 0.94 | 0.77 | 1.08 |  |  |  |  |  |  |  |  |  | 
NCCCNc1ccc(C(=O)NC(CCC(=O)O)C(=O)O)cc1 (centres unmarked) [compound 7] | 1.03 | 1.14 | 0.92 | 0.9 | 1.07 | 0.94 | 0.99 | 1.08 | 0.99 | 0.92 | 0.86 |  |  |  |  |  |  |  |  |  | 
